Laboratory results taken from PMC11784839, “Monoaminergic neurotransmitters are bimodal effectors of tau aggregation” (Science Advances, 2025).

Target: tau (Homo sapiens, UniProt P10636)
Assay: MCE Phenols Library screening, tau biosensor cell seeding assay (AvZ)
Format: cell-based
Conditions: for Z repl 1 / Z Repl 2: Z score; for Z repl 1 / raw data 1: replicate 1; for Z Repl 2 / raw data 2: replicate 2; for AvZ (average z score of seeding, SDs from the mean level of seeding): 10 μM phenol in cell cultures, AD brain homogenate preincubated 16 hours, two biological replicates, positive = catalyzes seeding, negative = inhibits
[1] = average Z score of the two replicates, MCE Phenols Library screen
[2] = average puncta of the two replicates
[3] = average Z score of the two replicates, tau seeding
[4] = average Z score of two replicates, Phenols Library screen

Chain of tau (P10636 623-695 limits assumed): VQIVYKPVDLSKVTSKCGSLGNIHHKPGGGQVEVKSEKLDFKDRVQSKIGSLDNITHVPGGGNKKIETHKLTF

Z repl 1	Z Repl 2	av Z [1]	av puncta [2]	raw data 1 (puncta)	raw data 2 (puncta)	av Z [3]	av puncta (average of raw data 1 and 2)	raw data 1 (raw puncta)	raw data 2 (raw puncta)	AvZ (average z score of seeding, SDs from the mean level of seeding)	av Z [4]	Compound	av Z (average Z score of the two replicates, tau biosensor seeding, MCE Phenols Library screen)
-0.088	-0.968	-0.528	13858.4	25288.8	2427.91	–	–	–	–	–	–	C[C@@H]1O[C@@H](OC[C@H]2O[C@@H](Oc3c(-c4ccc(O)cc4)oc4cc(O)cc(O)c4c3=O)[C@H](O[C@@H]3O[C@@H](C)[C@H](O)[C@@H](O)[C@H]3O)[C@@H](O)[C@@H]2O)[C@H](O)[C@H](O)[C@H]1O [Clitorin]	–
-0.17	-1.084	-0.627	12750.8	24311.1	1190.55	–	–	–	–	–	–	O=C(/C=C/c1ccc(O)c(O)c1)N[C@@H](Cc1ccc(O)c(O)c1)C(=O)O [Clovamide]	–
0.366	0.999	–	–	30747.2	23431.8	0.683	27089.5	–	–	–	–	COc1ccc2c(c1)OC[C@@H](c1cc(O)c(OC)c(OC)c1O)C2 [Colutehydroquinone]	–
-0.533	-0.238	-0.385	15089	–	–	–	–	19953.5	10224.5	–	–	COc1cc(O)c2c(=O)c(O[C@@H]3O[C@H](CO)[C@@H](O)[C@H](O)[C@H]3O)c(-c3ccc(O[C@@H]4O[C@H](CO)[C@@H](O)[C@H](O)[C@H]4O)cc3)oc2c1 [Complanatuside]	–
0.738	0.319	–	–	35213	16173.9	–	25693.5	–	–	0.529	–	COc1cc(/C=C/CO)ccc1O [Coniferyl alcohol]	–
0.368	-0.434	–	–	30768	8130.42	–	19449.2	–	–	–	-0.033	COc1cc(/C=C/COC(=O)/C=C/c2ccc(O)c(OC)c2)ccc1O [Coniferyl ferulate]	–
-1.842	-1.134	-1.488	–	4240.16	650.661	–	2445.41	–	–	–	–	O=C(O[C@@H]1O[C@@H]2COC(=O)c3cc(O)c(O)c(O)c3-c3c(cc(O)c(O)c3O)C(=O)O[C@H]([C@H]1O)[C@@H]2O)c1cc(O)c(O)c(O)c1 [Corilagin]	–
0.054	-0.445	–	–	26996.8	8008.18	–	17502.5	–	–	–	-0.196	CC(C)=CCC/C(C)=C/Cc1cc(-c2coc3cc(O)ccc3c2=O)ccc1O [Corylifol A]	–
0.295	-0.524	–	–	29892.4	7171.93	–	18532.2	–	–	–	-0.114	COc1cc2c(cc1O)CCN1Cc3c(ccc(OC)c3OC)CC21 (stereo not shown) [Corypalmine]	–
-0.018	-0.542	-0.28	16558.4	–	–	–	–	26137.6	6979.18	–	–	O=c1oc2cc(O)ccc2c2oc3cc(O)ccc3c12 [Coumestrol]	–
0.313	1.224	–	–	30100.9	25838.9	–	27969.9	–	–	0.768	–	COc1cc(C)ccc1O [Creosol]	–
0.935	0.427	–	–	37574	17325	0.681	27449.5	–	–	–	–	O=C(/C=C/c1ccc(O)c(O)c1)O[C@H]1[C@H](O)C[C@](O)(C(=O)O)C[C@H]1O [Cryptochlorogenic acid]	–
-0.772	0.136	-0.318	15649.1	–	–	–	–	17078.1	14220.1	–	–	COc1cccc(OC)c1C(=O)OCc1cc(O)ccc1O[C@@H]1O[C@H](CO)[C@@H](O)[C@H](O)[C@H]1O [Curculigoside]	–
–	–	–	16957.6	–	–	–	–	27554	6361.09	–	–	O=c1c(-c2ccc(O)cc2)coc2cc(O)ccc12 [Daidzein]	–
-1.052	-0.634	-0.843	–	13720.6	5995.43	–	9858.03	–	–	–	–	O=C1c2cccc(O)c2C(=O)c2c(O)cccc21 [Danthron]	–
-0.257	-0.157	-0.207	17173.7	–	–	–	–	23258.6	11088.8	–	–	COc1cc2cc(Oc3ccc4ccc(=O)oc4c3)c(=O)oc2cc1O [Daphnoretin]	–
0.835	0.419	–	–	36377.1	17242.2	0.627	26809.6	–	–	–	–	C/C=C/c1cc(OC)c2c(c1)C(C)C(c1ccc(O)c(OC)c1)O2 (stereo not shown) [Dehydrodiisoeugenol]	–
-0.088	-0.204	–	–	25297.3	10588.9	–	17943.1	–	–	–	-0.146	COc1ccc2cc3[n+](cc2c1OC)CCc1cc(O)c(O)cc1-3 [Demethyleneberberine]	–
0.557	-0.129	–	–	33032.9	11386.3	0.214	22209.6	–	–	–	–	Oc1ccc(OC2CCCCO2)cc1 (stereo not shown) [Deoxyarbutin]	–
0.811	-0.238	–	–	36082.1	10219.6	0.286	23150.9	–	–	–	–	COc1ccc(/C=C/c2cc(O)cc(O[C@@H]3O[C@H](CO)[C@@H](O)[C@H](O)[C@H]3O)c2)cc1 [Desoxyrhaponticin]	–
0.855	0.348	–	–	36614.6	16482.8	0.602	26548.7	–	–	–	–	COc1cc(-c2coc3cc4c(c(O)c3c2=O)OCO4)cc(O)c1OC [Dichotomitin]	–
0.014	-0.922	–	14716.5	–	–	–	–	26515.6	2917.33	-0.454	–	O=C(O)CCc1ccc(O)c(O)c1 [Dihydrocaffeic acid]	–
-0.987	-0.442	-0.715	11271.3	14500	8042.62	–	–	–	–	–	–	O=C1c2ccc(O)cc2OCC1c1ccc(O)cc1 (stereo not shown) [Dihydrodaidzein]	–
-0.958	-0.625	-0.792	–	14843.2	6088.67	–	10465.9	–	–	–	–	COc1cc(CC(C)C(C)Cc2ccc(O)c(OC)c2)ccc1O (stereo not shown) [Dihydroguaiaretic acid]	–

Compound	Z repl 1	Z Repl 2	av Z [1]	av puncta [2]	raw data 1 (puncta)	raw data 2 (puncta)	av Z [3]	av puncta (average of raw data 1 and 2)	raw data 1 (raw puncta)	raw data 2 (raw puncta)	AvZ (average z score of seeding, SDs from the mean level of seeding)	av Z [4]	av Z (average Z score of the two replicates, tau biosensor seeding, MCE Phenols Library screen)
COc1cc2c(cc1O)-c1cc3ccc(OC)c(OC)c3c[n+]1CC2 [Columbamine]	0.655	0.636	–	–	34211.5	19562.6	0.646	26887.1	–	–	–	–	–
OC[C@H]1O[C@@H](Oc2cc3c(O)cc(O)cc3[o+]c2-c2ccc(O)c(O)c2)[C@H](O[C@@H]2OC[C@@H](O)[C@H](O)[C@H]2O)[C@@H](O)[C@@H]1O.[Cl-] [Cyanidin 3-sambubioside (chloride)]	-0.124	-1.008	-0.566	13432.8	24866.3	1999.21	–	–	–	–	–	–	–
Oc1cc(O)c2cc(O)c(-c3ccc(O)c(O)c3)[o+]c2c1.[Cl-] [Cyanidin (Chloride)]	-1.789	-1.05	-1.419	–	4876.54	1551.23	–	3213.88	–	–	–	–	–
OC[C@H]1O[C@@H](Oc2cc3c(O)cc(O)cc3[o+]c2-c2ccc(O)c(O)c2)[C@H](O)[C@@H](O)[C@H]1O.[Cl-] [Cyanidin-3-O-galactoside (chloride)]	-1.814	-0.88	-1.347	–	4573.89	3370.84	–	3972.36	–	–	–	–	–
O=C([O-])C(O)Cc1ccc(O)c(O)c1.[Na+] (stereo not shown) [Danshensu (sodium salt)]	-0.172	-0.817	–	14160.8	24282	4039.49	–	–	–	–	-0.495	–	–
O=C(O)[C@H](O)Cc1ccc(O)c(O)c1 [Danshensu]	-0.37	-1.076	–	11586.7	21904.2	1269.24	–	–	–	–	-0.723	–	–
OC[C@H]1O[C@@H](Oc2cc3c(O)cc(O)cc3[o+]c2-c2cc(O)c(O)c(O)c2)[C@H](O)[C@@H](O)[C@@H]1O.[Cl-] [Delphinidin 3-glucoside (chloride)]	-1.229	–	-1.2	–	11598.4	259.098	–	5928.77	–	–	–	–	–
Oc1cc(O)c2cc(O)c(-c3cc(O)c(O)c(O)c3)[o+]c2c1.[Cl-] [Delphinidin (chloride)]	–	-0.674	-1.417	–	426.071	5569.91	–	2997.99	–	–	–	–	–
COc1cc([C@@H]2c3cc4c(cc3C[C@H]3COC(=O)[C@@H]32)OCO4)cc(OC)c1OC [Deoxypodophyllotoxin]	3.44	3.821	–	–	67641.6	53571.1	–	60606.3	–	–	–	–	3.63
